PubChem BioAssay AID256 (DTP/NCI, 2004)
Inconclusive results and toxic doses are left out. The calls were made as follows: active = survival T/C of 150% or more; inactive = T/C below 125% in these data.

Tested on: CD2F1 mice, L1210 leukemia ip, survival T/C
Assay: NCI In Vivo Anticancer Drug Screen. Data for tumor model L1210 Leukemia (intraperitoneal) in CD2F1 (CDF1) mice
Settings: higher = longer survival
In short: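 Compound-dosed mice with transplantable tumor versus matched vehicle controls; endpoint ratio T/C reported.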

[1] = endpoint: mean survival time, dose: 50.0 mg/kg/injection, schedule: Q01DX009 (ip), vehicle: Klucel (hydroxypropylcellulose) (HPC)
[2] = endpoint: mean survival time, dose: 100.0 mg/kg/injection, schedule: Q01DX009 (ip), vehicle: Klucel (hydroxypropylcellulose) (HPC)
[3] = endpoint: mean survival time, dose: 200.0 mg/kg/injection, schedule: Q01DX009 (ip), vehicle: Klucel (hydroxypropylcellulose) (HPC)
[4] = endpoint: mean survival time, dose: 100.0 mg/kg/injection, schedule: Q01DX009 (ip), vehicle: saline with Tween-80
[5] = endpoint: mean survival time, dose: 100.0 mg/kg/injection, schedule: Q04DX003 (ip), vehicle: saline with Tween-80
[6] = endpoint: mean survival time, dose: 200.0 mg/kg/injection, schedule: Q01DX009 (ip), vehicle: saline with Tween-80
[7] = endpoint: mean survival time, dose: 200.0 mg/kg/injection, schedule: Q04DX003 (ip), vehicle: saline with Tween-80

Measured: T/C

CNC(=S)SC1=NS(=O)(=O)c2ccccc2N1
inactive: endpoint: median survival time, dose: 25.0 mg/kg/injection, schedule: Q01DX005 (ip), vehicle: Klucel (hydroxypropylcellulose) (HPC) 106 % of control | endpoint: median survival time, dose: 50.0 mg/kg/injection, schedule: Q01DX005 (ip), vehicle: Klucel (hydroxypropylcellulose) (HPC) 101 % of control | endpoint: median survival time, dose: 100.0 mg/kg/injection, schedule: Q01DX005 (ip), vehicle: Klucel (hydroxypropylcellulose) (HPC) 108 % of control | endpoint: median survival time, dose: 144.0 mg/kg/injection, schedule: Q01DX005 (ip), vehicle: Klucel (hydroxypropylcellulose) (HPC) 113 % of control | endpoint: median survival time, dose: 200.0 mg/kg/injection, schedule: Q01DX005 (ip), vehicle: Klucel (hydroxypropylcellulose) (HPC) 118 % of control

O=S(=O)(N/N=C/c1ccccc1)c1ccccc1
inactive: endpoint: mean survival time, dose: 12.5 mg/kg/injection, schedule: Q01DX009 (ip), vehicle: Klucel (hydroxypropylcellulose) (HPC) 97 % of control | endpoint: mean survival time, dose: 25.0 mg/kg/injection, schedule: Q01DX009 (ip), vehicle: Klucel (hydroxypropylcellulose) (HPC) 95 % of control | [1] 90 % of control | [2] 94 % of control | [3] 92 % of control | endpoint: mean survival time, dose: 400.0 mg/kg/injection, schedule: Q01DX009 (ip), vehicle: Klucel (hydroxypropylcellulose) (HPC) 97 % of control

CCN(CC)c1ccc(-c2nc3ccccc3s2)cc1
inactive: [1] 106 % of control | [2] 98 % of control | [3] 102 % of control

CC(=O)CC(O)(C(F)(F)F)C(F)(F)F
inactive: endpoint: mean survival time, dose: 50.0 mg/kg/injection, schedule: Q01DX009 (ip), vehicle: saline with Tween-80 101 % of control | [4] 102 % of control | [5] 102 % of control | [6] 101 % of control | [7] 89 % of control

O=C(O)c1ccccc1C(=O)OC1CCC2CCCCC2C1 (stereo unspecified)
inactive: [4] 98 % of control | [5] 97 % of control | [6] 95 % of control | [7] 92 % of control | endpoint: mean survival time, dose: 400.0 mg/kg/injection, schedule: Q01DX009 (ip), vehicle: saline with Tween-80 98 % of control | endpoint: mean survival time, dose: 400.0 mg/kg/injection, schedule: Q04DX003 (ip), vehicle: saline with Tween-80 101 % of control

COc1ccc(OC)c(/C=C/c2cc3ccccc3c[n+]2C)c1
inactive: endpoint: mean survival time, dose: 3.13 mg/kg/injection, schedule: Q01DX009 (ip), vehicle: saline with Tween-80 94 % of control | endpoint: mean survival time, dose: 6.25 mg/kg/injection, schedule: Q01DX009 (ip), vehicle: saline with Tween-80 102 % of control | endpoint: mean survival time, dose: 12.5 mg/kg/injection, schedule: Q01DX009 (ip), vehicle: saline with Tween-80 105 % of control

CCOc1cccc(Cc2cn(Cc3cccc(NC(=O)Nc4ccc(S(=O)(=O)F)cc4)c3)c(=O)[nH]c2=O)c1
inactive: endpoint: mean survival time, dose: 100.0 mg/kg/injection, schedule: Q01DX001 (ip), vehicle: saline with Tween-80 86 % of control | endpoint: mean survival time, dose: 200.0 mg/kg/injection, schedule: Q01DX001 (ip), vehicle: saline with Tween-80 92 % of control | endpoint: mean survival time, dose: 400.0 mg/kg/injection, schedule: Q01DX001 (ip), vehicle: saline with Tween-80 86 % of control
